Results from US10588921B2, “Drug for the treatment of cholesterol accumulation disorders” (NATIONAL UNIVERSITY CORPORATION KUMAMOTO UNIVERSITY, priority 2013, dated 2020).

Legend:
[1] = test system: NPC-derived HLCs; format: cell-based, human; settings: for cholesterol accumulation in NPC-HLCs (filipin staining): 1 mM hydroxypropyl-cyclodextrin, FIG. 18
Experimental: For hepatocyte-like cell (HLC) induction, the culture medium of semi-confluent human iPS cells were switched from the iPS medium to the definitive endoderm differentiation medium containing RPMI1640 supplemented with 2% B27 (Life technologies), 100 ng/m1 Activin A and 1 mM Sodium butyrate (NaB, SIGMA). The NaB concentration is changed in 0.5 mM on day 2. On day 4, the cells were harvested and re-seeded onto Matrigel-coated dishes in hepatic differentiation medium containing DMEM supplemented with 20% KSR, 1 mM glutamine, 1 mM NEAA, 0.1 mM 2-mercaptoethanol (SIGMA), 1% Dimethyl sulfoxide (DMSO, SIGMA). CXCR4 expressions were examined by FACS on day 4. On day 11, the cells were harvested and re-cultured in the hepatic maturation medium containing L15 medium (SIGMA) supplemented with 8.3% FBS, 8.3% tryptose phosphate broth (SIGMA), 10 mM hydrocortisone 21-hemisuccinate (SIGMA), 1 mM insulin (SIGMA), 2 mM glutamine, lOng/ml Hepatocyte growth factor (HGF, R & D) and 20 ng/ml Oncostatin M (OSM, R & D). On day 18, the cells were used for various experiments. For the hydroxypropyl cyclodextrin treatments, HLCs were cultured with 0.1 mM or 1 mM of the hydroxypropyl cyclodextrins for four days. For Annexin and TUNEL stainings, HLCs are cultured for four days and a week from day 18, respectively.
(§1) Alkaline phosphatase staining was performed using the Leukocyte Alkaline Phosphatase kit (SIGMA). For immunocytochemistry, cells were fixed with PBS containing 4% paraformaldehyde for 30 min at 4° C. For the molecules localized in nucleus, samples were treated with 0.2% Triton X-100 for 15 min at room temperature (RT). The cells were washed three times with PBS containing 2% FBS and then incubated overnight at 4° C. in PBS containing 2% FBS with primary antibodies. Nucleuses were stained with Propidium Iodide (PI, WAKO, Japan) and 1 mg/ml Hoechst 33258 (Invitrogen). The list of the primary and secondary antibodies is described in Table 3. For Filipin staining, samples were washed with PBS three times after the fixing and incubated with PBS containing 1.5 mg/ml glycine for 10 min at RT. The samples were then treated with PBS containing 10% FBS and 50 mg/ml Filipin (SIGMA). The data was calculated by UV absorption (360/460) and analyzed with Developer Toolbox software of IN CELL ANALYZER 6000 (GE Healthcare). The number of insoluble p62 granules were counted by IN CELL ANALYZER 6000 (GE Healthcare). To investigate glycogen accumulation, Periodic acid Schiff (PAS) staining of hepatocyte-like cells were performed by PAS staining solution (Muto Pure chemicals, Tokyo, Japan), according to the manufacturer's protocol.
The inventors therefore treated the HLCs derived from normal and NPC-iPS cell lines with a series of 2-hydroxypropyl-cyclodextrins with different cavity sizes, and observed effect of a series of hydroxypropyl-cyclodextrins. HLCs were cultured with 1 mM of the indicated hydroxypropyl-cyclodextrin for 4 days, stained with filipin and analyzed with an IN CELL ANALYSER (GE Healthcare) (FIG. 18).
(§2) The size of HLCs is decreased by the treatments with HPBCD and HPGCD (data not shown). Effects of various concentration of HPBCD and HPGCD in NPC-derived HLCs was observes. HLCs were cultured with HPBCD or HPGCD for 4 days, stained with filipin and analyzed with an IN CELL ANALYSER (GE Healthcare).

[2] = test system: isolated erythrocyte; settings: in vitro; cited from earlier work
[3] = test system: rats; settings: acute intravenous administration to rats; cited from earlier work
[4] = test system: NPC-derived HLCs; assay: Cell size of HLCs; format: cell-based, human; settings: data not shown
Experimental: The cell sizes of albumin-positive cells was calculated by Developer Toolbox software of IN CELL ANALYZER 6000 (GE Healthcare).
as §2

[5] = test system: NPC-derived HLCs; assay: Measurement of ATP in HLCs; format: cell-based, human; settings: 1 mM HPCD, 4 days; FIG. 21
Experimental: Hepatocyte-like cells derived from the iPSC lines were cultured in DMEM medium in the absence of glucose for 24 hours and were then cultured in the DMEM medium containing 10% FBS and high glucose for 6 hours. ATP was measured by ATP measurement Kit (TOYO INK), according to the manufacturer's protocol.
(§3) HLCs were culture with 1 mM 2-hydroxypropylcyclodextrins (HPCDs) for 4 days, and ATP level, expression levels of LC3 and p62, and insoluble p62 granules were measured.

[6] = test system: LC3; assay: Immunoblot of LC3 expression in HLCs; format: cell-based, human; settings: 1 mM HPCD, 4 days; FIG. 22
Experimental: (§4) Protein lysates were separated by SDS-PAGE and transferred to PVDF membrane. LC3-I and LCS3-II were detected by anti-LC3 antibody (Cell Signaling). The data are normalized to α-tubulin expression. The HLCs were solved in RIPA buffer and then insoluble p62 was collected as a pellet after the centrifuge of the samples.
as §3

[7] = test system: p62; assay: Immunoblot of insoluble p62 in HLCs; format: cell-based, human; settings: 1 mM HPCD, 4 days; FIG. 23
Experimental: as §4, §3

[8] = test system: p62; assay: Count of insoluble p62 granules in HLCs (IN CELL ANALYZER); format: cell-based, human; settings: 1 mM HPCD, 4 days; FIG. 24
Experimental: as §1, with “To investigate glycogen accumulation, Periodic acid Schiff (PAS) staining of hepatocyte-like cells were performed by PAS staining solution (Muto Pure chemicals, Tokyo, Japan), according to the manufacturer's protocol.” left out
as §3

[9] = test system: normal mice; assay: Acute toxicity test in normal mice; format: in vivo, mouse; settings: 14.4 mM, 19.18 ml/g subcutaneous, 8-week-old normal mice; FIG. 34
Experimental: To confirm the excellent safety of HPGCD, acute toxicity was tested using normal mice. 14.4 mM HPBCD or HPGCD were injected in the amount of 19.18 ml/g into subcutaneous tissues of 8-week-old mice (n=10), and then survival rates were calculated.

[10] = test system: NPC-derived HLCs; format: cell-based, human; settings: cells treated during HLC differentiation; FIG. 20
[11] = test system: Npc1 gene-defective (Npc1−/−) mice; settings: cited from earlier work
[12] = test system: NPC child patients; settings: intravenous instillation 2500 mg/kg per time, 1 to 3 times per week, more than 1 year; cited from earlier work
[13] = test system: NPC1-defective cells; settings: reported; cited from earlier work

Question: Which results are given for 2-Hydroxypropyl-α-cyclodextrin [HPACD]?
Answer: activity on hepatocyte-like cells differentiation-induced from NPC patient-derived iPS cells [1]: no activity at all; cholesterol accumulation in NPC-HLCs (filipin staining) ([1]; 4 days): did not show any effect on cholesterol accumulation; hemolytic activity (order) [2]: HPBCD>HPACD>HPGCD

Question: Which “intravenous dose showing lethality to 50% of population (LD50 value)” value [3] does the source give for OC[C@H]1O[C@@H]2O[C@H]3[C@H](O)[C@@H](O)[C@@H](O[C@H]4[C@H](O)[C@@H](O)[C@@H](O[C@H]5[C@H](O)[C@@H](O)[C@@H](O[C@H]6[C@H](O)[C@@H](O)[C@@H](O[C@H]7[C@H](O)[C@@H](O)[C@@H](O[C@H]8[C@H](O)[C@@H](O)[C@@H](O[C@H]1[C@H](O)[C@H]2O)O[C@@H]8CO)O[C@@H]7CO)O[C@@H]6CO)O[C@@H]5CO)O[C@@H]4CO)O[C@@H]3CO [β-cyclodextrin] here?
Answer: Its value is 788 mg/kg.

Question: Which “intravenous dose showing lethality to 50% of population (LD50 value)” value [3] does the source give for OC[C@H]1O[C@@H]2O[C@H]3[C@H](O)[C@@H](O)[C@@H](O[C@H]4[C@H](O)[C@@H](O)[C@@H](O[C@H]5[C@H](O)[C@@H](O)[C@@H](O[C@H]6[C@H](O)[C@@H](O)[C@@H](O[C@H]7[C@H](O)[C@@H](O)[C@@H](O[C@H]8[C@H](O)[C@@H](O)[C@@H](O[C@H]9[C@H](O)[C@@H](O)[C@@H](O[C@H]1[C@H](O)[C@H]2O)O[C@@H]9CO)O[C@@H]8CO)O[C@@H]7CO)O[C@@H]6CO)O[C@@H]5CO)O[C@@H]4CO)O[C@@H]3CO [γ-cyclodextrin] here?
Answer: The value was over 3750 mg/kg.

Question: What does the source list for CC(O)COC[C@H]1O[C@@H]2O[C@H]3[C@H](O)[C@@H](O)[C@@H](O[C@H]4[C@H](O)[C@@H](O)[C@@H](O[C@H]5[C@H](O)[C@@H](O)[C@@H](O[C@H]6[C@H](O)[C@@H](O)[C@@H](O[C@H]7[C@H](O)[C@@H](O)[C@@H](O[C@H]8[C@H](O)[C@@H](O)[C@@H](O[C@H]1[C@H](O)[C@H]2O)O[C@@H]8COCC(C)O)O[C@@H]7COCC(C)O)O[C@@H]6COCC(C)O)O[C@@H]5COCC(C)O)O[C@@H]4COCC(C)O)O[C@@H]3COCC(C)O (stereo partly drawn) [HPBCD, 2-hydroxypropyl-β-cyclodextrin]?
Answer: cholesterol accumulated in hepatocyte-like cells derived from NPC [1]: removed cholesterol accumulated in hepatocyte-like cells derived from NPC; function of the hepatocyte-like cells [1]: recovered the function of the hepatocyte-like cells; cholesterol accumulation in NPC-HLCs (filipin staining) ([1]; 4 days): significantly decreased; cholesterol accumulation in NPC-derived HLCs (filipin staining) ([1]; low concentration 100 μM, 4 days, FIG. 19): ineffective for reducing cholesterol accumulation; size of HLCs [4]: decreased; ATP level [5]: recovered; expression level of LC3 [6]: recovered to normal levels; amount of insoluble p62 [7]: reduced the amount of insoluble p62; proportion of HLCs carrying more than 40 granules of insoluble p62 aggregation [8]: greatly reduced; survival after injection (acute toxicity) [9]: Almost all mice injected with HPBCD dies up to 72 hours after injection; free cholesterol accumulation, treatment during HLC differentiation [10]: effective at the intermediate stages in hepatic differentiation; hemolytic activity (order) [2]: HPBCD>HPACD>HPGCD; improving effect compared with systemic administration ([11]; directly administered into the brain): increased a few hundreds times; medical state or survival ([11]; intravenous administration): effective in improving the medical state or prolonging survival; nervous symptom [12]: has not been improved yet; splenohepatomegaly and brain wave [12]: certain effect of reduction of splenohepatomegaly and improvement in a brain wave; cholesterol accumulation in NPC1-defective cells [13]: effective for reducing of cholesterol accumulation

Question: Which “intravenous dose showing lethality to 50% of population (LD50 value)” value [3] does the source give for OC[C@H]1O[C@@H]2O[C@H]3[C@H](O)[C@@H](O)[C@@H](O[C@H]4[C@H](O)[C@@H](O)[C@@H](O[C@H]5[C@H](O)[C@@H](O)[C@@H](O[C@H]6[C@H](O)[C@@H](O)[C@@H](O[C@H]7[C@H](O)[C@@H](O)[C@@H](O[C@H]1[C@H](O)[C@H]2O)O[C@@H]7CO)O[C@@H]6CO)O[C@@H]5CO)O[C@@H]4CO)O[C@@H]3CO [α-cyclodextrin] here?
Answer: The value was 1000 mg/kg.
